We go through 4 molecules from ChEMBL document CHEMBL4334537 (ACS Med Chem Lett, 2020).

A short description of series [1]: Chemical stability of fluorescent labelled compound in PBS buffer at pH 7.4 and 22 degree C measured after 48 hrs by RP-HPLC analysis. Type of series: physicochemical. The following applies: pH 7.4, 48 h.
The nature of series [2]: Chemical stability of fluorescent labelled compound in PBS buffer assessed as compound decomposition at pH 7.4 and 22 degree C after > 24 hrs by RP-HPLC analysis. The following applies: pH 7.4, 24 h. Type of series: physicochemical.

The structures appear in SMILES notation.

With `CC[C@H](C)[C@H](NC(=O)[C@H](Cc1ccc(O)cc1)NC(=O)[C@@H]1CCCN1C(=O)[C@H](CCCNC(=N)N)NC(=O)[C@@H](N)CCCNC(=N)NC(=O)NCCCCNC(=O)CCCCCN1/C(=C/C=C/C=C/C2=[N+](CCCCS(=O)(=O)[O-])c3ccccc3C2(C)C)C(C)(C)c2cc(S(=O)(=O)O)ccc21)C(=O)N[C@@H](CC(C)C)C(=O)O.O=C(O)C(F)(F)F.O=C(O)C(F)(F)F`, the Stability result in series [1] was “Stable”. Consider `CC[C@H](C)[C@H](NC(=O)[C@H](Cc1ccc(O)cc1)NC(=O)[C@@H]1CCCN1C(=O)[C@H](CCCNC(=N)N)NC(=O)[C@@H](N)CCCNC(=N)NC(=O)NCCOCCOCC[n+]1c(C)cc(/C=C/C=C/c2ccc(N(C)C)cc2)cc1C)C(=O)N[C@@H](CC(C)C)C(=O)O.O=C(O)C(F)(F)F.O=C(O)C(F)(F)F.O=C(O)C(F)(F)F.O=C([O-])C(F)(F)F`, for which the Stability result in series [2] is listed as “Unstable”.

Consider `CC[C@H](C)[C@H](NC(=O)[C@H](Cc1ccc(O)cc1)NC(=O)[C@@H]1CCCN1C(=O)[C@H](CCCNC(=N)NC(=O)NCCOCCOCCNC(=O)CCCCCN1/C(=C/C=C/C=C/C2=[N+](CCCCS(=O)(=O)[O-])c3ccccc3C2(C)C)C(C)(C)c2cc(S(=O)(=O)O)ccc21)NC(=O)[C@@H](N)CCCNC(=N)N)C(=O)N[C@@H](CC(C)C)C(=O)O.O=C(O)C(F)(F)F.O=C(O)C(F)(F)F`, for which the Stability result in series [1] is on record as “Stable”. Same read-out and setting: for `CC[C@H](C)[C@H](NC(=O)[C@H](Cc1ccc(O)cc1)NC(=O)[C@@H]1CCCN1C(=O)[C@H](CCCNC(=N)N)NC(=O)[C@@H](N)CCCNC(=N)NC(=O)NCCOCCOCCNC(=O)CCCCCN1/C(=C/C=C/C=C/C2=[N+](CCCCS(=O)(=O)[O-])c3ccccc3C2(C)C)C(C)(C)c2ccccc21)C(=O)N[C@@H](CC(C)C)C(=O)O.O=C(O)C(F)(F)F.O=C(O)C(F)(F)F.O=C(O)C(F)(F)F` the value was “Stable”.
